Test results taken from article PMC7123778 (ACS infectious diseases, 2019).

Legend:
[1] = cited from earlier work
H. pylori G27 = settings: H. pylori G27, liquid media; cited from earlier work
rat liver TrxR = molecular target: T1, rat liver TrxR (Rattus norvegicus, UniProt O89049); assay: TrxR inhibition assay; assay type: biochemical; settings: purified rat liver TrxR, DTNB, ΔA412 after 10 minutes
T1 sequence (O89049 1-499): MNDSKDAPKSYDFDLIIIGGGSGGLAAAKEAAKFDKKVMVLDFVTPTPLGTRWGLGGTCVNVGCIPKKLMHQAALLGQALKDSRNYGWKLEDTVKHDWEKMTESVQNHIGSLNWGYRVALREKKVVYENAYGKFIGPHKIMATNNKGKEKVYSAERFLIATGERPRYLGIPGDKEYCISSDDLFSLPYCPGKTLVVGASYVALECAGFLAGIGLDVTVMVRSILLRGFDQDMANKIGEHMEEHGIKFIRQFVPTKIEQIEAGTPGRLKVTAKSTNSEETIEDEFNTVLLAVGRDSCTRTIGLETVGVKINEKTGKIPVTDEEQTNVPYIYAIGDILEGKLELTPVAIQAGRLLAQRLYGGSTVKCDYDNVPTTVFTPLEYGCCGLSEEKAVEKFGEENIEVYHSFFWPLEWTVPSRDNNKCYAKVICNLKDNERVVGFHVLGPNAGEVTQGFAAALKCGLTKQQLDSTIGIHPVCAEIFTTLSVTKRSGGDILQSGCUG

free thiols in H. pylori = assay: Free thiol depletion assay; assay type: cell-based, Helicobacter pylori; settings: H. pylori treated with 5.0 μM for four hours

| SMILES | logP [1] | previously reported MIC (H. pylori G27) [µM] | half maximal inhibitory concentration (IC50) of TrxR (rat liver TrxR) | free thiol concentration in comparison to untreated samples (free thiols in H. pylori) |
| --- | --- | --- | --- | --- |
| CC(=O)OC[C@H]1O[C@@H]([S-])[C@H](OC(C)=O)[C@@H](OC(C)=O)[C@@H]1OC(C)=O.CCP(CC)CC.[Au+] [Compound 1, auranofin] | 0.56 | 1.2 |  |  |
| CC(=O)NC1C([S][Au][PH](C)(C)C)OC(CO)C(O)C1O (centres unmarked) [Compound 6] | −2.03 |  | inhibited TrxR most effectively |  |
| CC1(C)S[C@@H]2[C@H](NC(=O)[C@H](N)c3ccc(O)cc3)C(=O)N2[C@H]1C(=O)O [amoxicillin] |  |  |  | no differences in free thiol concentrations |
